Source: patent publication US20220162215A1, “COMPOSITIONS AND METHODS OF USING THE SAME FOR TREATMENT OF NEURODEGENERATIVE AND MITOCHONDRIAL DISEASE” (MITOKININ, INC., priority 2019, published 2022)
In brackets after ≈: the same amount, converted by molar mass. Entries after “also recorded” stand apart in the source; their conditions may differ. Read-outs that look alike come from different tables or passages of the source.

What was measured:
[1] = tested on: Hela MKYP (Mito-Keima/YFP-Parkin) cells; experiment: Inspection of round cells; conditions: Tables 6A-6D
Description: Briefly, the Hela MKYP (Mito-Keima/YFP-Parkin) cells were seeded at 10K cells/well. EP/MTK compounds were added at seeding (cells were still in suspension). The cells were incubated with the EP/MTK compounds for 16 hours, then 1 μM FCCP/oligomycin was added for 6 hours. Prior to harvesting, cells were scored by eye under 20× magnification for the presence or absence of crystalline or aggregated compound, or round cells.

[2] = tested on: dOTC; experiment: Ornithine carbamoyltransferase (dOTC) assay; type: cell-based
Source text: The expression of a deletion mutant of dOTC yields Triton X-100 insoluble protein aggregates in the mitochondrial matrix. This misfolded protein expression is capable of recruiting PINK1/Parkin to mitochondria without depolarizing the inner mitochondrial membrane. Thus, without wishing to be bound by theory, it may represent a more physiological mechanism of PINK1 stabilization.
Here, HeLa cells stably expressing YFP parkin, containing doxycycline inducible expression of dOTC, were obtained. The cells were seeded at 20000 cells/well plus doxycycline (1 μg/mL) plus MTK on a 96-well plate. On Day 3, the cells were fixed and permeabilized and bound with OTC antibody. DAPI and cell mask were added. There was no wash off of dox. The results were imaged at 40×, non-confocal. 85-600 cells were analyzed per well. Each condition had 1-3 wells.

[3] = Solubility in 1× PBS; type: physicochemical
[4] = tested on: GDF15; experiment: Cisplatin mouse model of mitochondrial dysfunction (GDF15 qPCR, kidney); type: in vivo, mice; conditions: oral dosing; i.p. cisplatin; FIG. 34
Source text: Cisplatin is a chemotherapeutic agent reported in the literature to induce mitochondrial damage (see: Yang, Z., et al. “Cisplatin Preferentially Binds Mitochondrial DNA and Voltage-Dependent Anion Channel Protein in the Mitochondrial Membrane of Head and Neck Squamous Cell Carcinoma: Possible Role in Apoptosis.” Clinical Cancer Research 12, no. 19 (2006), 5817-5825). Growth and Differentiation Factor 15 (GDF15) is an established biomarker of mitochondrial disease and certain neurodegenerative diseases (see: Montero, R, et al. “GDF-15 Is Elevated in Children with Mitochondrial Diseases and Is Induced by Mitochondrial Dysfunction.” PLOS ONE 11, no. 2 (2016); Nohara, S, et al. “GDF-15, a mitochondrial disease biomarker, is associated with the severity of multiple sclerosis”, Journal of Neurological Sciences, Vol 405 (2019)). Briefly, mice approximately 10 weeks in age were challenged with a single intraperitoneal dose of cisplatin (10 mg/kg), then treated daily via oral gavage with either compound 35985 at various doses or vehicle control. On day 7, the animals were sacrificed. Kidneys were removed and homogenized. Following published methods, qPCR was performed on the kidney samples to determine expression levels of GDF15.

[5] = molecular target: T1, PINK1 (Homo sapiens, UniProt Q9BXM7); experiment: PINK1 phosphorylation in HeLa cells (PhosTag gel electrophoresis); type: cell-based
T1 construct: for each cell type tested (HeLa-MKYP WT or PINK1^KO); endogenous in cells; host or cells: HeLa-MKYP (WT) / HeLa cells
T1 sequence (Q9BXM7 78-581): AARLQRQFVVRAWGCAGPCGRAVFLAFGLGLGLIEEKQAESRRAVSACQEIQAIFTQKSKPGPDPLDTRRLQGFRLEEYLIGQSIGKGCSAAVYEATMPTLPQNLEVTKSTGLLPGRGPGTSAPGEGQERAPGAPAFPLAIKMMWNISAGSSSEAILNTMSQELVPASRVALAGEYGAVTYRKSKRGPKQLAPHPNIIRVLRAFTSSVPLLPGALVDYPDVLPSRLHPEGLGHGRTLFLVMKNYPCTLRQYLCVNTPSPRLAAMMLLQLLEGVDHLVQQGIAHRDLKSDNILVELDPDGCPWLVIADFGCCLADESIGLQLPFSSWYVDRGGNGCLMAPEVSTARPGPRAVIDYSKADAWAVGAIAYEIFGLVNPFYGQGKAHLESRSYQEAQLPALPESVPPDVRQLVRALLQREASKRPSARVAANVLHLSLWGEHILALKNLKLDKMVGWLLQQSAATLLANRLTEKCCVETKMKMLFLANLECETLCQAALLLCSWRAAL

[6] = tested on: phospho-serine 129 synuclein (pS129); experiment: Preformed α-syn amyloid fibril (PFF) primary neuron model; type: cell-based, mice
Description: Briefly, primary hippocampal neurons were derived and cultured following standard protocols. At DIV-7, the cultures were treated with PFFs. At DIV-10, the cultures began treatment with a Mitokinin compound or vehicle controls, such treatment continuing for the duration of the experiment. The cultures were fixed and stained for alpha synuclein, TUJ1, and MAP2 at DIV-14, and analysis performed by unbiased imaging on an ImageXpress Confocal microscope and quantified by Molecular Devices' MetaXpress software.

[7] = molecular target: T1, PINK1; experiment: pS65 Ubiquitin ELISA assay (HeLa-MKYP WT or PINK1 KO); type: cell-based; conditions: PINK1wt vs PINK1ko cells, FIG. 17A
Description: HeLa-MKYP cells were plated at 10,000 cells/well in 96-well plates along with compounds at various concentrations. Following 16 hours of incubation, cells were treated with 1 μM FCCP/oligomycin (F/O) along with compounds at various doses for 2-3 hours. Appropriate controls were included on each plate to obtain a maximum signal from treatment with 10 μM F/O or, and a minimum signal from cells treated with no F/O with DMSO for each cell type tested (HeLa-MKYP WT or PINK1^KO). At the desired timepoint, media was removed and cells were frozen prior to lysis. Cells lysates were denatured by boiling, prior to analysis by a custom ELISA assay using commercially available antibodies (using anti-phospho-ubiquitin as a capturing antibody, and anti-total ubiquitin as a detection antibody). Purified pS65 ubiquitin was used to generate a standard curve and determine timing for ELISA reaction development.

[8] = molecular target: T1, PINK1; experiment: Human Phospho-Ubiquitin (pS65) ub2 assay (western blot, in vitro PINK1 kinase assay); type: cell-based; conditions: in the presence of 0.5 μM FO; FIG. 14
Description: Briefly, HeLa MKYP cells were plated at 1,300,000 cells/plate in 10 cm plates in 10 mL of medium containing compound at various concentrations. Following 16 hrs of incubation, cells were treated with 0.5 uM FCCP/oligomycin for 2 hours, then harvested. Mitochondria were then isolated according to published protocols (Ordureau et al, 2014; https://doi.org/10.1016/j.molcel.2014.09.007). Equal amounts of samples were loaded on 26 well gradient gels, and a western blot analysis was performed using commercially available antibodies for various markers, including […].

[9] = In vivo summary, pharmacokinetics, rat
Description: Referring to Tables 8A-C below, an in vivo summary of EP-0035985 IV at 1 mg/kg (8A), PO 10 mg/kg (8B), and a tissue distribution, mouse (8C) is shown below.

[10] = three days of treatment with DOX and 50 μM

For `FC(F)(F)c1cc2c(NC3CCCc4ccccc43)ncnc2[nH]1` (stereo not shown) [Compound 15], the “Inspection of round cells” value ([1]; 1.6 μM) was 0, the “Inspection of round cells” value ([1]; 3.1 μM) was 0 and the “Inspection of round cells” value ([1]; 6.3 μM) was 0. The “Inspection of round cells” value ([1]; 12.5 μM) was 0, the “Inspection of round cells” value ([1]; 25.0 μM) was 0 and the “Inspection of round cells” value ([1]; 50.0 μM) was 0. For the same compound, the “dOTC proteins / delta OTC aggregates” value ([2]; induced by doxycycline, FIG. 16, FIG. 20, listed as EP-0035985) was “able to reduce the accumulated dOTC proteins; also recorded: reduces delta OTC aggregates from mitochondria”, the OTC signal [2, 10] was “very effective at reducing OTC signal” and the cell counts [2, 10] was “cell counts were lower”. For the same compound, the solubility [3] was 1 µM (≈ 0.332 µg/mL), the “expression of mitochondrial disease marker GDF15” value [4] was “reduces expression of mitochondrial disease marker GDF15” and the “pS65 Ubiquitin” value ([5]; 0.5, 1 μM FCCP, FIG. 33C) was “significant increase in pS65 Ubiquitin at 0.5, 1 μM FCCP”. For the same compound, the “levels of PINK1phospho” value ([5]; HeLa cells, 2.8 μM compound and 0.5, 1.0, or 2.0 μM FCCP, FIG. 33A) was “significantly increases the levels of PINK1phospho”, the EC50 ([6]; FIG. 22A, 22B, read-out: EC50 of decrease of pS129 synuclein increase driven by PFF addition) was 981 nM and the “pS129 synuclein in PINK1ko cell lines” value ([6]; PINK1ko, FIG. 22C) was “does not decrease pS129 synuclein in PINK1^ko cell lines”. The “pS65 Ub (PINK1 substrate phosphorylation)” value [7] was “significant increase in pS65 Ub in PINK1^wt cells but not in PINK1^ko cell lines”, the “pS65 Ub signal” value [8] was “increases the pS65 Ub signal” and the AUCExtr ([9]; IV at 1 mg/kg, Table 8A) was 2.5%. The AUClast ([9]; IV at 1 mg/kg, Table 8A) was 837.5 ng·h/mL, the C0 ([9]; IV at 1 mg/kg, Table 8A) was 1667.7 ng/mL and the CL ([9]; IV at 1 mg/kg, Table 8A) was 19.5 mL/min/kg. The MRTlnf ([9]; IV at 1 mg/kg, Table 8A) was 2.0 h, the T1/2 ([9]; IV at 1 mg/kg, Table 8A) was 3.6 h and the Vss ([9]; IV at 1 mg/kg, Table 8A) was 2.4 L/kg. For the same compound, the Vz ([9]; IV at 1 mg/kg, Table 8A) was 6.0 L/kg, the AUClast ([9]; PO 10 mg/kg, Table 8B) was 692.4 ng·h/mL and the MRTlnf ([9]; PO 10 mg/kg, Table 8B) was 88.1 h. It also gave a Vss ([9]; PO 10 mg/kg, Table 8B) of 7.9 L/kg, an AUC ([9]; in vivo, IV at 1 mg/kg, Table 8A) of 838 ng·h/mL and an AUC ([9]; in vivo, PO 10 mg/kg, Table 8B) of 7350 ng·h/mL. For the same compound, the C0 ([9]; in vivo, PO 10 mg/kg, Table 8B, read-out: C0) was 2.6 ng/mL.
